Test results from US8324190B2, “Treatment of proliferative disorders with amino-substituted (E)-2,6- dialkoxystyryl 4-substituted benzylsulfones” (Temple University—Of The Commonwealth System of Higher …, priority 2002, dated 2012).
Counter-ions that a name gives are not always drawn.

Columns and labels:
Assay in all cases: Tumor cell viability assay, Trypan blue exclusion
Type in all cases: cell-based
Conditions in all cases: cell viability after 96 hours
[1] = tested on: breast adenocarcinoma cell line BT-20
Procedure: (§1) BT-20 is an estrogen-unresponsive cell line. NIH/3T3 and HFL are normal murine and human fibroblasts, respectively. BT-20, DLD-1 and H157 were grown in Dulbecco's modified Eagle's medium (DMEM) containing 10% fetal bovine serum supplemented with penicillin and streptomycin. DU145 was cultured in RPMI with 10% fetal bovine serum containing penicillin and streptomycin. NIH3T3 and HFL cells were grown in DMEM containing 10% calf serum supplemented with penicillin and streptomycin. Cells were plated at density levels of 1.0×10^5 cells per well in six-well plates. Cell cultures were maintained at 37° C. in a humidified atmosphere of 5% CO2. Cells were treated with compounds of the invention at various concentrations. Cell viability was determined after 96 hours by the Trypan blue exclusion method. […] The number of viable cells remaining after 96 hours of treatment was determined using hemacytometer following trypan blue staining. The number of viable cells has been plotted as the percent of Vehicle treated (control) cells.

[2] = tested on: colorectal carcinoma cell line DLD-1
Procedure: as §1

[3] = tested on: non-small cell lung carcinoma cell line H157
Procedure: as §1

[4] = tested on: prostate carcinoma cell line DU-145
Procedure: as §1

| Compound | IC50 [1] | IC50 [2] | IC50 [3] | IC50 [4] |
| --- | --- | --- | --- | --- |
| COc1cc(OC)c(/C=C/S(=O)(=O)Cc2ccc(OC)c(NC(=O)CC(Cl)C(=O)O)c2)c(OC)c1 (centres unmarked) [Example 35, (E)-2,4,6-trimethoxystyryl-3-(3-chlorosuccinamido)-4-methoxy-benzylsulfone] | < 10 µM | < 10 µM | < 10 µM | < 10 µM |
| COc1cc(OC)c(/C=C/S(=O)(=O)Cc2ccc(OC)c(NC(=O)c3cc(N)cc(N)c3)c2)c(OC)c1 [Example 6, (E)-2,4,6-trimethoxystyryl-3-(3,5,diaminobenzamido)-4-methoxy-benzylsulfone] | < 10 µM | < 10 µM | < 10 µM | < 10 µM |
| COc1cc(OC)c(/C=C/S(=O)(=O)Cc2ccc(OC)c(NC(=O)c3cc([N+](=O)[O-])cc([N+](=O)[O-])c3)c2)c(OC)c1 [Example 5, (E)-2,4,6-trimethoxystyryl-3-(3,5,dinitrobenzamido)-4-methoxy-benzylsulfone] | < 10 µM | < 10 µM | < 10 µM | < 10 µM |
| COc1cc(OC)c(/C=C/S(=O)(=O)Cc2ccc(OC)c(NS(=O)(=O)c3ccc(N)cc3N)c2)c(OC)c1 [Example 20, (E)-2,4,6-Trimethoxystyryl-3-(2,4-diaminobenzenesulfamyl)-4-methoxybenzylsulfone] | < 10 µM | < 10 µM | < 10 µM | < 10 µM |
| COc1cc(OC)c(/C=C/S(=O)(=O)Cc2ccc(OC)c(NC(=O)CCCC(=O)O)c2)c(OC)c1 [Example 37, (E)-2,4,6-trimethoxystyryl-3-(glutaramido)-4-methoxybenzyl-sulfone] | < 10 µM | < 10 µM | < 10 µM | < 10 µM |
| COc1ccc(S(=O)(=O)Nc2cc(CS(=O)(=O)/C=C/c3c(OC)cc(OC)cc3OC)ccc2OC)cc1 [Example 42, (E)-2,4,6-trimethoxystyryl-3-(4-methoxybenzenesulfamyl)-4-methoxybenzylsulfone] | < 10 µM | < 10 µM | < 10 µM | < 10 µM |
| COc1cc(OC)c(/C=C/S(=O)(=O)Cc2ccc(OC)c(S(=O)(=O)NCC(=O)O)c2)c(OC)c1 [Example 1, (E)-2,4,6-Trimethoxystyryl-3-(carboxymethylsulfamyl)-4-methoxybenzylsulfone] | < 10 µM | < 10 µM | < 10 µM | < 10 µM |
| COc1cc(OC)c(/C=C/S(=O)(=O)Cc2ccc(OC)c(NC(=O)C(F)(F)C(F)(F)F)c2)c(OC)c1 [Example 46, (E)-2,4,6-trimethoxystyryl-3-(pentafluoropropionamido)-4-methoxybenzylsulfone] | < 10 µM | < 10 µM | < 10 µM | < 10 µM |

More lines, now with the values ahead:

| IC50 [1] | IC50 [2] | IC50 [3] | IC50 [4] | Compound |
| --- | --- | --- | --- | --- |
| < 10 µM | < 10 µM | < 10 µM | < 10 µM | CNc1cc(CS(=O)(=O)/C=C/c2c(OC)cc(OC)cc2OC)ccc1OC [Example 17, (E)-2,4,6-Trimethoxystyryl-3-(N-methylamino)-4-methoxybenzyl-sulfone] |
| < 10 µM | < 10 µM | < 10 µM | < 10 µM | (E)-2,4,6-Trimethoxystyryl-3-amino-4-methoxybenzylsulfone-D-serineamide [Example 15] |
| < 10 µM | < 10 µM | < 10 µM | < 10 µM | COc1cc(OC)c(/C=C/S(=O)(=O)Cc2ccc(OC)c(NC(=O)C[n+]3ccccc3)c2)c(OC)c1 [Example 25, (E)-2,4,6-trimethoxystyryl-3-(pyridinium-1-yl)acetamido-4-methoxybenzylsulfone] |
| < 10 µM | < 10 µM | < 10 µM | < 10 µM | COc1cc(OC)c(/C=C/S(=O)(=O)Cc2ccc(OC)c(NC(=O)CP(=O)(O)O)c2)c(OC)c1 [Example 38, (E)-2,4,6-trimethoxystyryl-3-(phosphonatoacetamido)-4-methoxybenzylsulfone, disodium salt] |
| < 10 µM | < 10 µM | < 10 µM | < 10 µM | COc1cc(OC)c(/C=C/S(=O)(=O)Cc2ccc(OC)c(NC(C)=O)c2)c(OC)c1 [Example 18, (E)-2,4,6-Trimethoxystyryl-3-(acetamido)-4-methoxybenzyl-sulfone] |
| < 10 µM | < 10 µM | < 10 µM | < 10 µM | (E)-2,4,6-Trimethoxystyryl-3-amino-4-methoxybenzylsulfone-L-lysineamide [Example 13] |
| < 10 µM | < 10 µM | < 10 µM | < 10 µM | COc1cc(OC)c(/C=C/S(=O)(=O)Cc2ccc(OC)c(NC(N)=O)c2)c(OC)c1 [Example 16, (E)-2,4,6-Trimethoxystyryl-3-(ureido)-4-methoxybenzylsulfone] |
| < 10 µM | < 10 µM | < 10 µM | < 10 µM | COc1cc(OC)c(/C=C/S(=O)(=O)Cc2ccc(OC)c(NC(=O)CO)c2)c(OC)c1 [Example 24, (E)-2,4,6-trimethoxystyryl-3-(hydroxyacetamido)-4-methoxy-benzylsulfone] |
| < 10 µM | < 10 µM | < 10 µM | < 10 µM | COc1cc(OC)c(/C=C/S(=O)(=O)Cc2ccc(OC)c(NCCCC(=O)O)c2)c(OC)c1 [Example 39, (E)-2,4,6-trimethoxystyryl-3-(3-carboxypropylamino)-4-methoxybenzylsulfone] |
